Values of other authors, collected in patent US20250152568A1, “METHODS OF TREATING COMPLEX REGIONAL PAIN SYNDROME” (Aisa Pharma, Inc., priority 2022, published 2025).

Target: Nav 1.7 sodium channel (Homo sapiens, UniProt Q15858)
Conditions: 20 mg dose of cilnidipine vs 1800 mg dose of gabapentin; see WO2021/178903

Chain of Nav 1.7 sodium channel (Q15858 whole entry): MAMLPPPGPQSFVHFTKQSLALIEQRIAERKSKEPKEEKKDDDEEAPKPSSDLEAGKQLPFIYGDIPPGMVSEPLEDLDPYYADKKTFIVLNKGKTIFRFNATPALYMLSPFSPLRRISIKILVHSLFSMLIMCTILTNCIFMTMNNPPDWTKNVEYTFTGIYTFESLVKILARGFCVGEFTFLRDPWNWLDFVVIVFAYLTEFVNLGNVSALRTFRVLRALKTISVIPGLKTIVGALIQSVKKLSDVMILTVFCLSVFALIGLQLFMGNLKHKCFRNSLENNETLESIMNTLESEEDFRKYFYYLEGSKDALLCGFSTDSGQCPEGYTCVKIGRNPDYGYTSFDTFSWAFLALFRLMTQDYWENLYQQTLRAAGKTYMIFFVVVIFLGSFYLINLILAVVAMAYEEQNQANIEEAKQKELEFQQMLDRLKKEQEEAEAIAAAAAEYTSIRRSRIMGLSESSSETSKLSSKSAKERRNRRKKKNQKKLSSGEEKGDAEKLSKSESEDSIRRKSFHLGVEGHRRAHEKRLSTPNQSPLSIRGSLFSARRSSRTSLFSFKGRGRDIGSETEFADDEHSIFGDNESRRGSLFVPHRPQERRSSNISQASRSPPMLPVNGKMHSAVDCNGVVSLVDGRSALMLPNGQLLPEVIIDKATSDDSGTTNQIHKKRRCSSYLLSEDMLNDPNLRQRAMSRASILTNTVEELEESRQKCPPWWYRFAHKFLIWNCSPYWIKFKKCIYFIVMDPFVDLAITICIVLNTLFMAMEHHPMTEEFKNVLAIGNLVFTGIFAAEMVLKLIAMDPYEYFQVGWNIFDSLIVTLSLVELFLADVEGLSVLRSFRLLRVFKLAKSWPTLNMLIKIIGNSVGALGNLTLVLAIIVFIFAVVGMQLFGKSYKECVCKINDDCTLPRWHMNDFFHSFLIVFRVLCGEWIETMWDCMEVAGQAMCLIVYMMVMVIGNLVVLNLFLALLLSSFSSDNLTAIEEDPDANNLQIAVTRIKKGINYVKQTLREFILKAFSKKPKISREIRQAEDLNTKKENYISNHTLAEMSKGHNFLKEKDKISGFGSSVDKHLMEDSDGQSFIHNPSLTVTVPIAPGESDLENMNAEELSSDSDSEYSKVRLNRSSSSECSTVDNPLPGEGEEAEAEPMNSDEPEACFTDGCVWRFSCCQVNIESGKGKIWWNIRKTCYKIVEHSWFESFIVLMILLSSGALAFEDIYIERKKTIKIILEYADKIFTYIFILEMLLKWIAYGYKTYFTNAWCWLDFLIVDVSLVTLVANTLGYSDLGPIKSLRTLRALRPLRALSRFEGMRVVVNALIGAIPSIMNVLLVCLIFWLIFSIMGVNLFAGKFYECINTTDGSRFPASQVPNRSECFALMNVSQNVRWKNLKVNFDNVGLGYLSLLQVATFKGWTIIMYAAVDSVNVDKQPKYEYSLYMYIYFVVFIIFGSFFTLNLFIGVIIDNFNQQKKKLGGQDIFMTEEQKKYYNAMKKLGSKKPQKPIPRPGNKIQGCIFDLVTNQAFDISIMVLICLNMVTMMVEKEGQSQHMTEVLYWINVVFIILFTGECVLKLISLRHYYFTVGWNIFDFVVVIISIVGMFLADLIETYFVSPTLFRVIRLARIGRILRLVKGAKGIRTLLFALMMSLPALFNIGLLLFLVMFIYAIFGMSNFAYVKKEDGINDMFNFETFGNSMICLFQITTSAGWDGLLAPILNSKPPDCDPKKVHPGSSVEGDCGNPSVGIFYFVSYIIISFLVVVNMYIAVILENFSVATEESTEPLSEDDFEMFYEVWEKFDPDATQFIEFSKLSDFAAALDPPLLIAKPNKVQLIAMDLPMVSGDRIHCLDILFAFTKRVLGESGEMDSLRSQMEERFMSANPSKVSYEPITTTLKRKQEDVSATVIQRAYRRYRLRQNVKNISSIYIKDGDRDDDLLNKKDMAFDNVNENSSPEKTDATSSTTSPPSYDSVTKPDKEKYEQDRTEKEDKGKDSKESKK

COCCOC(=O)C1=C(C)NC(C)=C(C(=O)OC/C=C/c2ccccc2)C1c1cccc([N+](=O)[O-])c1 (stereo not shown) [cilnidipine]
inhibition of Nav 1.7 compared to an 1800 mg dose of gabapentin: > 6 fold
